As a reminder, the inhibition is the change of the read-out against control, counted positive when it falls.

We go through 4 compounds from patent US8524755B2 (priority 2009, dated 2013).

The target in series [1] is T1, Cholecystokinin CCK2 (CCKB) (h) (Homo sapiens, UniProt P32239).
T1 construct: expressed in transfected cells; host or cells: CHO cells
T1 sequence (P32239 1-447): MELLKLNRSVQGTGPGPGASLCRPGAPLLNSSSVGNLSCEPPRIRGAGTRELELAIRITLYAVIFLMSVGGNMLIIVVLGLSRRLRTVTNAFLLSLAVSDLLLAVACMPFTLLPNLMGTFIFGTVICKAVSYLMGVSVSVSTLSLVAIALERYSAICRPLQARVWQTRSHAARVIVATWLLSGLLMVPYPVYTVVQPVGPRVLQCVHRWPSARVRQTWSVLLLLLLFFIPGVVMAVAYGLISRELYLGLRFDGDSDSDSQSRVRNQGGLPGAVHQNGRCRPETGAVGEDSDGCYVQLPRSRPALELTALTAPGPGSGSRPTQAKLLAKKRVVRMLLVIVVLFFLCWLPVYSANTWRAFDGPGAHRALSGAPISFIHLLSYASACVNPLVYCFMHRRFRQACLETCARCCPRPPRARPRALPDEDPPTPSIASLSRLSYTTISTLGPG
The series can be described thus: Binding CCK2 (CCKB) (h) (ag). To be noted: read-out: % Inhibition of Control Specific Binding @ 10 μM. On the procedure: (§1) Radioligand binding assay methods utilized to measure the activity of compounds of the invention will be familiar to those skilled in the art. In each assay case, the assay components such as, for example, the cell-type, ligand, reference compound and the like, will be familiar to practitioners of such an assay.
(§2) Analysis and Expression of Results: Compounds of the invention were tested in the biochemical assays and percent inhibition of specific binding was determined. The specific ligand binding to the receptors is defined as the difference between the total binding and the nonspecific binding determined in the presence of an excess of unlabelled ligand. The results are expressed as a percent inhibition of control specific binding (100−((measured specific binding/control specific binding)×100)) obtained in the presence of test compounds.

The next series concerns the target T2, Endothelin ETB (h) (Homo sapiens, UniProt P24530).
T2 construct: expressed in transfected cells; host or cells: CHO cells
T2 sequence (P24530 27-442): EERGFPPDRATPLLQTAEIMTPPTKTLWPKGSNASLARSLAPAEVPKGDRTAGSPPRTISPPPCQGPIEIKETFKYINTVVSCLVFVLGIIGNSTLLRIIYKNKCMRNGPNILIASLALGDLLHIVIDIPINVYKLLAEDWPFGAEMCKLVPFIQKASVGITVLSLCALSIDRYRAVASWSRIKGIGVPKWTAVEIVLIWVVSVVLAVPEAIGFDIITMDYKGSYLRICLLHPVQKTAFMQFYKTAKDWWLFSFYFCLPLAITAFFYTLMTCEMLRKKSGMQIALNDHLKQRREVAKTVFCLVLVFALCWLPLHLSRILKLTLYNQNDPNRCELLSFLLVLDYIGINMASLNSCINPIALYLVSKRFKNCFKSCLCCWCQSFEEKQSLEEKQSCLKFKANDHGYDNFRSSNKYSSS
The series can be described thus: Binding ETB (h) (ag). To be noted: read-out: % Inhibition of Control Specific Binding @ 10 μM. On the procedure: as §1, §2

The next series has as its target T3, Neurokinin NK2 (h) (Homo sapiens, UniProt P21452).
T3 construct: expressed in transfected cells; host or cells: CHO cells
T3 sequence (P21452 1-398): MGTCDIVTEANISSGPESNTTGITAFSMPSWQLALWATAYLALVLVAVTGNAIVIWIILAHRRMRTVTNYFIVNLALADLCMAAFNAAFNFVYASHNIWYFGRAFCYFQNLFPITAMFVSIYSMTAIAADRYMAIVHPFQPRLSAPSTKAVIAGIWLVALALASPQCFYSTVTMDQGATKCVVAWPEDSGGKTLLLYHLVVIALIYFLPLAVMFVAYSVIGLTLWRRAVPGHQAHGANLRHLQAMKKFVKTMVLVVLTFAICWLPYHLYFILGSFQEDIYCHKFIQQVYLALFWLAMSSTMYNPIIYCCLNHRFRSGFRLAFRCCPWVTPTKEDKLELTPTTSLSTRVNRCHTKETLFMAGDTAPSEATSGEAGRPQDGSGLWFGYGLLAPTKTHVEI
The series can be described thus: Binding NK2 (h) (ag). The conditions noted are these: read-out: % Inhibition of Control Specific Binding @ 10 μM. The procedure:
as §1, §2

A further series has as its system GABA transporter. The series is described as follows: Binding GABA transporter (aa). The arrangement: species or system rat. The procedure: as §1, §2
In the next series the target is T4, PDE4D (h) (Homo sapiens, UniProt Q08499).
T4 construct: host or cells: Sf9 cells
The series is described as follows: Enzyme assay PDE4D (h). The conditions noted are these: read-out: % Inhibition of Control Values @ 10 μM. It counts as biochemical. From the text:
(§3) The enzyme assays provided below will be familiar to those skilled in the art.
(§4) Analysis and Expression of Results: The results are expressed as a percent of control specific activity ((measured specific activity/control specific activity)×100) obtained in the presence of the test compounds.

Another series deals with COMT. The series can be described thus: Enzyme assay COMT. The class given is biochemical, porcine.
Source text: as §3, §4

The target in a further series is T5, tyrosine hydroxylase (Rattus norvegicus, UniProt P04177).
T5 construct: rat striatum; from tissue; host or cells: rat striatum
The series is described as follows: Enzyme assay tyrosine hydroxylase. To be noted: read-out: % Inhibition of Control Values @ 10 μM. The class given is biochemical.
Source text: as §3, §4

The nature of series [2]: Quantification of RD162′ metabolites in human plasma. It counts as in vivo. To be noted: for Concentrations in Patients' Plasma Expressed as a Percentage of the Concentration of RD162′, Average / Concentrations in Patients' Plasma Expressed as a Percentage of the Concentration of RD162′, Maximum / Concentrations in Patients' Plasma Expressed as a Percentage of the Concentration of RD162′, Minimum: 18 patients; for Concentrations in Patients' Plasma Expressed as a Percentage of the Concentration of RD162′, Minimum: RD162′ 150 to 480 mg per day, approx. three months; for concentration in the plasma (in words): plasma of 18 prostate cancer patients on RD162′. On the procedure: The method used to derive the above data was as follows. Electrospray LC/MS/MS Assay of RD162′ Metabolites ((MI), (MII), (MIII)):
Plasma Extraction Procedures for Concentration Determinations: A human plasma sample (50 μL) was added to a 10-mL glass tube. A 10-μL volume of IS stock solution was added to the tube, followed by addition of 1 M phosphate buffer at pH 3.0 (400 μL). The mixture was vortexed and […] (5 mL) was added. The tube was vortexed for 30 sec and then centrifuged at 4540 g for 10 min. The solvent was transferred to a glass tube and dried under air flow at 35-40° C. The sample was reconstituted with 100 μL of methanol: 0.1% formic acid in water (7:3) vortexed for 30 sec, and sonicated for 5 min. The sample was transferred to an HPLC sample vial and centrifuged at 4540 g for 5 min. A 20-μL volume was then injected onto an LC/MS/MS system for assay.
HP1100 LC Pump Initial Conditions: HPLC Column: ACE C18, 5 μM, 150×2.1 mm id. Solvents: A % 40.0; B % 60.0; C % 0.0; D % 0.0; Valve A set to channel 1; Valve B set to channel 1. Flow: 0.300 mL/min; Stop Time: 9.0 min; MM. Pressure: 0 bar; Max. Pressure: 300 bar; Oven Temperature Left: 30.0° C.; Oven Temperature Right: 30.0° C.
LC/MS/MS Parameters for RD162′ Metabolite (MI)
Instrument Parameters—Function 1: Polarity ES-; Data type: MRM data; Function type: MRM of 5 channels.
HPLC Column: ACE C18, 5 μM, 150×2.1 mm id; HP1100 LC Pump mode: Isocratic; Isocratic solvent conditions: A % 25.0; B % 75.0; C % 0.0; D % 0.0; Valve A set to channel 1; Valve B set to channel 1; Flow: 0.300 mL/min; Stop Time: 4.5 min; Min. Pressure: 0 bar; Max. Pressure: 300 bar: Oven Temperature Left: 30.0° C.; Oven Temperature Right: 30.0° C.

T4 sequence (Q08499 whole entry): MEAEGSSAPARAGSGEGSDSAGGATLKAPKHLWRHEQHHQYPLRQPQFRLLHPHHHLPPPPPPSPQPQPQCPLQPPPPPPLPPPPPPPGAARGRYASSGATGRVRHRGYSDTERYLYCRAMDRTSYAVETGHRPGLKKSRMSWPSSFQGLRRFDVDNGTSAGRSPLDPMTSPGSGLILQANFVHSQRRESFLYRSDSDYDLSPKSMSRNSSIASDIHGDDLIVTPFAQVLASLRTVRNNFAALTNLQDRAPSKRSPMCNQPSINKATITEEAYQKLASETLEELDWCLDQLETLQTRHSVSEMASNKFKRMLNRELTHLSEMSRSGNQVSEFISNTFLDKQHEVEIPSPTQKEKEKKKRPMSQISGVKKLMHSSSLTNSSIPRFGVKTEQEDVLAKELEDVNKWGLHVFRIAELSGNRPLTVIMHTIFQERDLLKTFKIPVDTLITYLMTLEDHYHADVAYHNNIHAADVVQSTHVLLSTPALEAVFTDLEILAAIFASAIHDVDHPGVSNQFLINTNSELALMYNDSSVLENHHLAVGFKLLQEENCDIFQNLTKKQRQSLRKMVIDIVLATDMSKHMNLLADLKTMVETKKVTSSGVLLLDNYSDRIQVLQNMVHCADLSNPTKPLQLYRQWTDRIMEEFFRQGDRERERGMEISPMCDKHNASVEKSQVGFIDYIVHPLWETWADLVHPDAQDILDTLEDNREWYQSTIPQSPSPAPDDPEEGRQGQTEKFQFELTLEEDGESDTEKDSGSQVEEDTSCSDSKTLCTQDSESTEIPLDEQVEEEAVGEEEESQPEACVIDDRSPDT
T5 sequence (P04177 whole entry): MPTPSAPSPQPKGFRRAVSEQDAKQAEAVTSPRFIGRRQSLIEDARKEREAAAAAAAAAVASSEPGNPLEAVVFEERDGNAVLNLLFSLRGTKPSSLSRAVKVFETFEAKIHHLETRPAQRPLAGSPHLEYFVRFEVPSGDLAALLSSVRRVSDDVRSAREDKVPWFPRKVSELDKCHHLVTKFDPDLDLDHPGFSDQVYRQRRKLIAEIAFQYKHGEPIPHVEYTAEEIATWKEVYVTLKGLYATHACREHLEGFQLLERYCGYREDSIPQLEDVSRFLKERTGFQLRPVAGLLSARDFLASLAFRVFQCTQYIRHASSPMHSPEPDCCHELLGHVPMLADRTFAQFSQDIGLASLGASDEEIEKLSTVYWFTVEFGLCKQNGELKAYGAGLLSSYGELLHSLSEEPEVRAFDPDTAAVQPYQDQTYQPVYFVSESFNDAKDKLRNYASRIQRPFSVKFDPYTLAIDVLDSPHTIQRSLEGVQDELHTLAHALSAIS

With `CNC(=O)c1ccc(N2C(=O)N(c3ccc(C#N)c(C(F)(F)F)c3)C(=O)C2(C)C)cc1F` [(MIV), 4-(3-(4-cyano-3-(trifluoromethyl)phenyl)-5,5-dimethyl-2,4-dioxoimidazolidin-1-yl)-2-fluoro-N-methylbenzamide], the inhibition at 10 µM was -12% in series [1]; -3% at Endothelin ETB (h); 2% at Neurokinin NK2 (h); -41% on PDE4D (h); -2% on tyrosine hydroxylase. Also, in the series on GABA transporter, the “% Inhibition of Control Specific Binding @ 10 μM” value is −24%. Also, in the series with COMT, the “% Inhibition of Control Values @ 10 μM” value is 0%.
As to `CC1(C)C(=O)N(c2ccc(C#N)c(C(F)(F)F)c2)C(=O)N1c1ccc(C(N)=O)c(F)c1` [(MIII), 4-(3-(4-cyano-3-(trifluoromethyl)phenyl)-5,5-dimethyl-2,4-dioxoimidazolidin-1-yl)-2-fluorobenzamide], the inhibition at 10 µM in series [1] was -18%; at Endothelin ETB (h) it was 0%; on Neurokinin NK2 (h), 0%; on PDE4D (h), -11%; on tyrosine hydroxylase, -2%. Further, the “% Inhibition of Control Specific Binding @ 10 μM” value in the series with GABA transporter is recorded as −35%. In addition, in the series with COMT, the “% Inhibition of Control Values @ 10 μM” value is on record as −1%. In series [2], the “Concentrations in Patients' Plasma Expressed as a Percentage of the Concentration of RD162′, Average” value is 4%. Also, in series [2], the “Concentrations in Patients' Plasma Expressed as a Percentage of the Concentration of RD162′, Maximum” value is reported as 14%. Besides, the “Concentrations in Patients' Plasma Expressed as a Percentage of the Concentration of RD162′, Minimum” value in series [2] stood at 1%. Also, the “concentration in the plasma (in words)” value in series [2] is “low concentrations”.
With `CC1(C)C(=O)N(c2ccc(C#N)c(C(F)(F)F)c2)C(=S)N1c1ccc(C(=O)O)c(F)c1` [(MI), 4-(3-(4-cyano-3-(trifluoromethyl)phenyl)-5,5-dimethyl-4-oxo-2-thioxoimidazolidin-1-yl)-2-fluorobenzoic acid], the inhibition at 10 µM was -10% in series [1]; -7% at Endothelin ETB (h); -6% at Neurokinin NK2 (h); 1% at PDE4D (h); -4% at tyrosine hydroxylase. In addition, the “% Inhibition of Control Specific Binding @ 10 μM” value with GABA transporter is on record as −16%. For the same compound, the “% Inhibition of Control Values @ 10 μM” value in the series with COMT was found to be 1%. For the same compound, the “Concentrations in Patients' Plasma Expressed as a Percentage of the Concentration of RD162′, Average” value in series [2] is reported as 60%. Also, the “Concentrations in Patients' Plasma Expressed as a Percentage of the Concentration of RD162′, Maximum” value in series [2] is given as 259%. For the same compound, in series [2], the “Concentrations in Patients' Plasma Expressed as a Percentage of the Concentration of RD162′, Minimum” value was found to be 16%. Also, the “concentration in the plasma (in words)” value in series [2] is “high concentrations”.
For the compound `CC1(C)C(=O)N(c2ccc(C#N)c(C(F)(F)F)c2)C(=S)N1c1ccc(C(N)=O)c(F)c1` [(MII), 4-(3-(4-Cyano-3-(trifluoromethyl)phenyl)-5,5-dimethyl-4-oxo-2-thioxoimidazolidin-1-yl)-2-fluorobenzamide], the inhibition at 10 µM is -18% in series [1]; -4% on Endothelin ETB (h); -3% at Neurokinin NK2 (h); -9% on PDE4D (h); 2% on tyrosine hydroxylase. Besides, the “% Inhibition of Control Specific Binding @ 10 μM” value in the series with GABA transporter is given as 7%. For the same compound, the “% Inhibition of Control Values @ 10 μM” value with COMT is given as −1%. In addition, the “Concentrations in Patients' Plasma Expressed as a Percentage of the Concentration of RD162′, Average” value in series [2] was 112%. In series [2], the “Concentrations in Patients' Plasma Expressed as a Percentage of the Concentration of RD162′, Maximum” value is 204%. In series [2], the “Concentrations in Patients' Plasma Expressed as a Percentage of the Concentration of RD162′, Minimum” value was 49%. Further, in series [2], the “concentration in the plasma (in words)” value is reported as “high concentrations”.
